Experimental data published in PubChem BioAssay AID406 (SGCOxCompounds, 2006).

What follows are compounds tested against mRNA-capping enzyme (Homo sapiens) (UniProt O60942) (assay: inhibition of human mRNA capping enzyme RNGTT – biochemical, DiFMUP fluorescence, recombinant (AID 406)). Details: DiFMUP phosphatase fluorescence, at 50 µM, active compounds read high.
Chain of mRNA-capping enzyme (Homo sapiens) (O60942 whole entry, looked up): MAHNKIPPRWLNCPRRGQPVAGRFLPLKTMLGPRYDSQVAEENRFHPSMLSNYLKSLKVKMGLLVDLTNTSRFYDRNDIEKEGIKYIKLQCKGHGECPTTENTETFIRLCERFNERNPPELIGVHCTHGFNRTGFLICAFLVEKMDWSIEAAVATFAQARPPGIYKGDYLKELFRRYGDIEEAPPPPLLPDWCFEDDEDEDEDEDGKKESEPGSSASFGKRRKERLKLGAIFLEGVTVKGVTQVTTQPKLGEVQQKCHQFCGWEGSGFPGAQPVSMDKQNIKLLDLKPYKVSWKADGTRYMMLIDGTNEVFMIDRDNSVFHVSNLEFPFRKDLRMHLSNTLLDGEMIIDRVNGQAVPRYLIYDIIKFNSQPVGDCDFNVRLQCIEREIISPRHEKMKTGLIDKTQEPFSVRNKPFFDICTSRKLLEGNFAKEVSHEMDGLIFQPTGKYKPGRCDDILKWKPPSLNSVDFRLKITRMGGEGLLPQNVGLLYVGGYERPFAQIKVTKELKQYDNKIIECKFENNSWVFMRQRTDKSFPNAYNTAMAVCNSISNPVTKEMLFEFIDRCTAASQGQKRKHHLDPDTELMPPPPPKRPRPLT

Going from `CN(N=O)c1ccc(O)c(O)c1` to `O=C(O)c1ccc(O)cn1.OO.[O]=[V]`, the inhibition rises from 33% to 51%.

Compared with `c1ccc([C@H]2CN3CCSC3=N2)cc1`, `OO.OO.[K+].[O]=[V].c1ccc(-c2ccccn2)nc1` is higher in inhibition: 29% for the first, 41% for the second.

First: CC(=O)c1ccc2c(c1)C1C=CCC1C(C(=O)O)N2 (configuration not stated)
Second: O=C(O)c1ccc([O-])cn1.OO.OO.[K+].[K+].[O]=[V]
The inhibition of the first is lower: 41% for the first, 47% for the second.

Going from `NC1=NC(=O)/C(=C/C=C/c2ccc([N+](=O)[O-])o2)S1` to `O=C1NC(=S)S/C1=C\C=C\c1ccc([N+](=O)[O-])o1`, the inhibition rises from 33% to 60%.

Compared with `CC(C)(c1ccc(NS(=O)(=O)C(F)(F)F)cc1)c1ccc(C(C)(C)c2ccc(NS(=O)(=O)C(F)(F)F)cc2)cc1`, `OO.OO.[K+].[O]=[V].c1cnc2c(c1)ccc1cccnc12` is lower in inhibition: 37% for the first, 22% for the second.

First: O=C1NC(=S)NC(=O)C1=C/C=C/c1ccco1
Second: O=C([O-])c1ccccn1.OO.OO.[K+].[K+].[O]=[V]
The inhibition of the first is lower: 22% for the first, 36% for the second.
